Measured values: patent US12502362B2, “Inhibitors of nucleotidyltransferase superfamily enzymes as antibiotics” (priority 2017, dated 2025)
Like-named read-outs stand apart in the source and are kept apart here.

Experiments:
Type in all cases: cell-based
[1] = system: Klebsiella pneumonia; test: Antibiotic susceptibility of Klebsiella pneumonia strains
Description: (§1) All these MDR-bacteria are at least resistant to two classes of the antibiotics among five groups and/or specific antibiotics including quinolones/fluorquinolones, carbapenems, cephalosporins, aminoglycosides and piperacillin-tazobactam.

[2] = system: Morganella morganii; test: Antibiotic susceptibility of Morganella morganii strain; conditions: Mm1 (Morganella morganii)
Description: as §1

[3] = system: MDR E. coli
Description: as §1

[4] = system: MDR Acinetobacter baumannii
Description: as §1

[5] = system: Citrobacter koseri; test: Antibiotic susceptibility of Citrobacter koseri strain; conditions: Ck1 (Citrobacter koseri)
Description: as §1

[6] = system: Enterobacter cloacae complex; test: Antibiotic susceptibility of Enterobacter cloacae complex strain; conditions: Ecc1 (Enterobacter cloacae complex)
Description: as §1

| Compound | Antibiotic susceptibility ([1]; Kp1 (Klebsiella pneumonia)) | Antibiotic susceptibility ([1]; Kp6 (Klebsiella pneumonia)) | Antibiotic susceptibility [2] | Antibiotic susceptibility ([3]; Ec1 (E. coli)) | Antibiotic susceptibility ([3]; Ec2 (E. coli)) | Antibiotic susceptibility ([3]; Ec3 (E. coli)) | Antibiotic susceptibility ([3]; Ec4 (E. coli)) | Antibiotic susceptibility ([3]; Ec5 (E. coli)) | Antibiotic susceptibility ([4]; Ab1 (Acinetobacter baumannii)) | Antibiotic susceptibility ([4]; Ab2 (Acinetobacter baumannii)) | Antibiotic susceptibility ([4]; Ab3 (Acinetobacter baumannii)) | Antibiotic susceptibility ([4]; Ab4 (Acinetobacter baumannii)) | Antibiotic susceptibility ([4]; Ab5 (Acinetobacter baumannii)) | Antibiotic susceptibility [5] | Antibiotic susceptibility [6] |
| --- | --- | --- | --- | --- | --- | --- | --- | --- | --- | --- | --- | --- | --- | --- | --- |
| CC1(C)S[C@@H]2[C@H](NC(=O)[C@H](N)c3ccccc3)C(=O)N2[C@H]1C(=O)O [AMP, Ampicillin] | R | R | R | R | R | R | R | R | R | R | R | R | R | – | – |
| CC(C)(O/N=C(\C(=O)N[C@@H]1C(=O)N2C(C(=O)[O-])=C(C[n+]3ccccc3)CS[C@H]12)c1csc(N)n1)C(=O)O [CAZ, Ceftazidime] | R | R | R | R | R | R | R | R | R | R | R | R | R | R | R |
| Cc1nnc(SCC2=C(C(=O)O)N3C(=O)[C@@H](NC(=O)Cn4cnnn4)[C@H]3SC2)s1 [CFZ, Cefazolin] | R | R | R | R | R | R | R | R | R | R | R | R | R | R | – |
| CO/N=C(\C(=O)N[C@@H]1C(=O)N2C(C(=O)O)=C(CSc3nc(=O)c(=O)[nH]n3C)CS[C@H]12)c1csc(N)n1 [CRO, Ceftriaxone] | R | R | I | R | R | R | R | R | R | R | R | R | R | S | R |
| C[C@@H](O)[C@H]1C(=O)N2C(C(=O)O)=C(S[C@@H]3CN[C@H](C(=O)Nc4cccc(C(=O)O)c4)C3)[C@H](C)[C@H]12 [ETP, Ertapenem] | S | S | S | S | S | S | S | S | – | – | – | – | – | S | S |
| CO/N=C(\C(=O)N[C@@H]1C(=O)N2C(C(=O)[O-])=C(C[N+]3(C)CCCC3)CS[C@H]12)c1csc(N)n1 [FEP, Cefepime] | R | R | S | R | R | R | R | R | R | R | R | R | R | S | – |
| C[C@@H](O)[C@H]1C(=O)N2C(C(=O)O)=C(SCCN=CN)C[C@H]12 [IPM, Imipenem] | S | S | S | S | S | S | S | S | S | I | I | I | R | S | S |
| C[C@@H](O)[C@H]1C(=O)N2C(C(=O)O)=C(S[C@@H]3CN[C@H](C(=O)N(C)C)C3)[C@H](C)[C@H]12 [MEM, Meropenem] | S | – | – | S | S | S | S | S | – | – | – | – | – | S | S |
| NC[C@H]1O[C@H](O[C@H]2[C@H](O)[C@@H](O[C@H]3O[C@H](CO)[C@@H](O)[C@H](N)[C@H]3O)[C@H](N)C[C@@H]2N)[C@H](N)C[C@@H]1O [TOB, Tobramycin] | S | R | I | I | I | I | R | R | S | S | S | S | I | I | S |
| Amoxicillin-clavulanic acid [AMC] | S | I | R | S | S | S | S | I | R | R | R | R | S | I | R |
| Ampicillin-Sulbactam [SAM] | R | R | R | R | I | I | R | R | S | S | S | S | I | – | – |
| Piperacillin-tazobactam [TZP] | S | R | S | S | S | S | S | S | – | – | R | – | – | I | R |
